Assay results as given in patent US4607047A, “N-(allyl-2-pyrrolidinylmethyl) 2-methoxy-4-amino-5-methylsulfamoyl benzamide anti platelets aggregation agent” (Societe d'Etudes Scientifiques et Industrielles de …, priority 1983, dated 1986).
pIC50: −log10 of the molar value.

Columns and labels:
human platelets [1] = assay: aggregation induced by collagen, human platelets in vitro; assay type: cell-based
Protocol: (§1) All those results agreeing, the following study was carried on human platelets in vitro, before proceeding to therapeutic applications. It relates to the effects of the compound according to the invention, in regard to aggregation induced by thrombin, collagen, adrenaline, and 5-hydroxytryptamine, and with regard to the release of carbon 14-marked 5-hydroxytryptamine, by thrombin, adrenaline and collagen.

human platelets [2] = assay: aggregation induced by thrombin, human platelets in vitro; assay type: cell-based; settings: thrombin 3.3 units/ml PRP
Protocol: as §1

human platelets [3] = assay: release of carbon 14-marked 5-hydroxytryptamine induced by thrombin, human platelets; assay type: cell-based; settings: human platelets in vitro
Protocol: as §1

platelets [4] = assay: platelet aggregation caused by adenosine phosphate; assay type: cell-based; settings: in vitro, rabbits
Protocol: (§2) The following pharmacological results illustrate the activity of the compound on platelet aggregation, the potentiation of such aggregation, the uptake of serotonin (the chemical name for which is 5-hydroxytryptamine) by the platelets and the release reaction of such platelets. This study was carried out on rabbits:
An inhibiting effect on the aggregation of platelets, caused by adenosine phosphate is observed.

human platelets [5] = assay: aggregation induced by 5-hydroxytryptamine, human platelets in vitro; assay type: cell-based
Protocol: as §1

vascular thrombus = assay: in vivo formation of a caused vascular thrombus; settings: animals
platelets [6] = assay: potentiation (induced by adrenaline) of platelet aggregation caused by adenosinephosphate; assay type: cell-based, rabbits; settings: rabbit platelets
Protocol: as §2
It is 20 times less powerful than PHENTOLAMINE as an adrenaline antagonist.

human platelets [7] = assay: aggregation induced by adrenaline, human platelets in vitro; assay type: cell-based
Protocol: as §1

platelets [8] = assay: platelet aggregation induced by collagen; assay type: cell-based, rabbits; settings: rabbit platelets
Protocol: as §2
(§3) The compound counteracts the action of collagen on the platelets.
a. prolongation of the typical latency phase which precedes aggregation of the platelets induced by collagen,
b. inhibition of the aggregation effect induced by collagen, and […]

platelets [9] = assay: release of carbon 14-marked 5-hydroxytryptamine induced by collagen; assay type: cell-based, rabbits; settings: rabbit platelets
Protocol: as §2, §3
The compound of the invention is 13 times more powerful than aspirin, which is well known for inhibiting the platelet release reaction.

human platelets [10] = assay: platelet release reaction induced by adrenaline, human platelets; assay type: cell-based; settings: human platelets in vitro; witnessed by inhibition of second phase of aggregation
Protocol: as §1

platelets [11] = assay: uptake of carbon 14-marked 5-hydroxytryptamine by platelets; assay type: cell-based; settings: Oryctolagus cuniculus, Platelet; rabbit platelets
From the text: (§4) The following pharmacological results illustrate the activity of the compound on platelet aggregation, the potentiation of such aggregation, the uptake of serotonin (the chemical name for which is 5-hydroxytryptamine) by the platelets and the release reaction of such platelets.

[12] = target: T1, alpha-2 receptors (Oryctolagus cuniculus); assay: potentiation (induced by CLONIDINE) of platelet aggregation caused by adenosinephosphate; assay type: cell-based, rabbits; settings: rabbit platelets; read-out: IC50, anti-adrenergic effect (potentiation induced by CLONIDINE of platelet aggregation caused by adenosinephosphate)
T1 construct: potentiation (induced by CLONIDINE) of platelet aggregation caused by adenosinephosphate; endogenous in cells; host or cells: rabbit blood platelets
From the text: as §4

alpha-2 receptors = target: T2, alpha-2 receptors (Oryctolagus cuniculus, UniProt Q5ZQK3); assay: as above; assay type: cell-based, rabbits; settings: rabbit platelets
T2 construct: potentiation (induced by CLONIDINE) of platelet aggregation caused by adenosinephosphate; endogenous in cells; host or cells: rabbit blood platelets
T2 sequence (Q5ZQK3 1-451): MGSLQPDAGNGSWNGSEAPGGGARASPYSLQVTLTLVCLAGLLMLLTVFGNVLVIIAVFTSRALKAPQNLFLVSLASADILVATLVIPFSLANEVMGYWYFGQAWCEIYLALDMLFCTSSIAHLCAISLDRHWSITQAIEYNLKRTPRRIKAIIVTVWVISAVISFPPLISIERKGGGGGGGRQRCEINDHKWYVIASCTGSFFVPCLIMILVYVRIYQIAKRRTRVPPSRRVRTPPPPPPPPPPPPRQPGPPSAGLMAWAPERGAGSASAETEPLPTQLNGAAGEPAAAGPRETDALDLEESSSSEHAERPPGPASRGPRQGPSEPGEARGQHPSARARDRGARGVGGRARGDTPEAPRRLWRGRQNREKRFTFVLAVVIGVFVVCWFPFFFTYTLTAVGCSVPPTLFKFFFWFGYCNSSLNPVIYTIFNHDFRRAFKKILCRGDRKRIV
From the text: as §4

[13] = test system: central dopaminergic receptors; assay: action on central dopaminergic receptors; apomorphine climbing and stereotypies; assay type: in vivo, rodents
From the text: Although under those conditions the pathogenetic role of platelet dysfunction has not been definitively established, various medicaments which are assumed to act by interfering with the platelet function have been widely used. Reference may be made for example to aspirin, dipyridamole and sulphinpyrazone. […] It can be said therefore that the undesirable neurological effects are very limited with that medicament.

platelets [14] = assay: potentiation (induced by 5-hydroxytryptamine) of platelet aggregation caused by adenosinephosphate; assay type: cell-based, rabbits; settings: rabbit platelets
Protocol: as §2
It is 63 times less powerful than METHYSERGIDE as a 5-hydroxytryptamine antagonist.

human platelets [15] = assay: release of marked 5-hydroxytryptamine induced by collagen, human platelets; assay type: cell-based; settings: human platelets in vitro
Protocol: as §1

human platelets [16] = assay: uptake of carbon 14-marked 5-hydroxytryptamine, human platelets in vitro; assay type: cell-based
rabbit platelets = assay: release of carbon 14-marked 5-hydroxytryptamine induced by adrenaline; assay type: cell-based; settings: Oryctolagus cuniculus, Platelet, read-out: IC50, inhibition of release of carbon 14-marked 5-hydroxytryptamine induced by adrenaline
From the text: as §4

**Q.** For `C=CCN1CCCC1CNC(=O)c1cc(S(=O)(=O)NC)c(N)cc1OC` (stereo not shown) [the compound, N-(1-allyl-2-pyrrolidinylmethyl) 2-methoxy 4-amino 5-methylsulphamoyl benzamide], which “aggregation of platelets induced by collagen” value (human platelets [1]) is on record?
**A.** The value was “inhibits”.

**Q.** What about the “primary aggregation of platelets induced by thrombin” value (human platelets [2]) of the same molecule?
**A.** Its value is “does not influence”.

**Q.** What about the “second phase of aggregation induced by thrombin” value (human platelets [2]) of the same molecule?
**A.** Its value is “inhibits”.

**Q.** What about the “release of carbon 14-marked 5-hydroxytryptamine induced by thrombin” value (human platelets [3]) of the same molecule?
**A.** Its value is “inhibits”.

**Q.** And the “platelet aggregation caused by adenosine phosphate” value (platelets [4])?
**A.** Its value is “inhibits”.

**Q.** And the “aggregation of platelets induced by 5-hydroxytryptamine” value (human platelets [5])?
**A.** Its value is “inhibits”.

**Q.** What about the “conditions of formation of a caused vascular thrombus (anti-aggregating effect)” value (vascular thrombus) of the same molecule?
**A.** The value was “modifies the conditions of formation”.

**Q.** And the pIC50 (platelets [6]; Oryctolagus cuniculus, Platelet, read-out: IC50, inhibition of potentiation (induced by adrenaline) of platelet aggregation caused by adenosinephosphate)?
**A.** Its pIC50 is 5.00.

**Q.** And the “times less powerful than PHENTOLAMINE as an adrenaline antagonist” value (platelets [6])?
**A.** The value was 20 times.

**Q.** What about the “first and second phases of aggregation of platelets induced by adrenaline” value (human platelets [7]) of the same molecule?
**A.** The value was “inhibits both”.

**Q.** What about the “aggregation effect induced by collagen” value (platelets [8]) of the same molecule?
**A.** The value was “inhibition”.

**Q.** And the “latency phase preceding aggregation of platelets induced by collagen” value (platelets [8])?
**A.** Its value is “prolongation”.

**Q.** And the pIC50 (platelets [9]; Oryctolagus cuniculus, Platelet, read-out: IC50, inhibition of release of carbon 14-marked 5-hydroxytryptamine induced by collagen)?
**A.** The pIC50 was 5.74.

**Q.** And the “times more powerful than aspirin, platelet release reaction” value (platelets [9]; collagen-induced release)?
**A.** The value was 13 times.

**Q.** And the “release reaction of the platelets induced by adrenaline” value (human platelets [10])?
**A.** The value was “inhibits”.

**Q.** And the pIC50 (platelets [11])?
**A.** The pIC50 was < 4.00.

**Q.** What about the pIC50 [12] of the same molecule?
**A.** The pIC50 was 4.53.

**Q.** What about the “activity relative to MIANSERINE as an alpha-2 antagonist” value (alpha-2 receptors) of the same molecule?
**A.** Its value is “twice as active”.

**Q.** And the “action on the central dopaminergic receptors” value ([13]; animals)?
**A.** Its value is “only a very weak action”.

**Q.** And the “doses to counteract apomorphine effects (climbing and stereotypies)” value ([13]; rodents)?
**A.** Its value is “high doses are required”.

**Q.** What about the pIC50 (platelets [14]; Oryctolagus cuniculus, Platelet, read-out: IC50, inhibition of potentiation (induced by 5-hydroxytryptamine) of platelet aggregation caused by adenosinephosphate) of the same molecule?
**A.** Its pIC50 is 4.72.

**Q.** And the “times less powerful than METHYSERGIDE as a 5-hydroxytryptamine antagonist” value (platelets [14])?
**A.** Its value is 63 times.

**Q.** And the “release of marked 5-hydroxytryptamine induced by collagen” value (human platelets [15])?
**A.** The value was “inhibits”.

**Q.** What about the “uptake of carbon 14-marked 5-hydroxytryptamine by platelets” value (human platelets [16]) of the same molecule?
**A.** Its value is “does not influence”.

**Q.** What about the pIC50 (rabbit platelets) of the same molecule?
**A.** The pIC50 was 4.00.
